Assay results published in PMC7139549, “TLD1433 Photosensitizer Inhibits Conjunctival Melanoma Cells in Zebrafish Ectopic and Orthotopic Tumour Models” (Cancers, 2020).

Test system: CRMM2 engrafted cells in zebrafish orthotopic model
Assay: In situ TUNEL assay, CRMM2 orthotopic zebrafish model
Assay type: in vivo, Zebrafish (Danio rerio)
Settings: RO 2.3 mM
Method: In situ TUNEL assay on fixed embryos was used to detect TLD1433 induced apoptosis in zebrafish CRMM1 and CRMM2 orthotopic tumour models at 4 dpi after light activation of 2.3 mM TLD1433, administrated by retro orbital injection. The DNA strand breaks in apoptotic tumour cells were stained with fluorescein and visualized as a green signal.
Figure 10 TUNEL assay of in CRMM1 and CRMM2 orthotopic model after RO of TLD1433. Red fluorescent CRMM1 (A) and CRMM2 (B) cells were injected at 2dpf behind the ZF eye and divided into four groups for drug treatment. RO administration of vehicle control and TLD1433 was performed as described in Figure 9C,E. After dark or light exposure (21 mW/cm^2, 114 J.cm^−2, 520 nm) embryos were fixed and TUNEL staining was performed. Representative images of embryos are shown in this figure. (A,B) In TLD1433 light groups nuclear DNA fragmentation by nucleases is detected by co-localization of green (DNA fragments) and red signal of engrafted CM cells, depicted as yellow signal and marked by white arrows. In control dark, control light, TLD1433 dark, there are no positive green apoptotic tumour cells observed. […] Experiment was performed 3 times with a group size of 10 embryos.
The zebrafish larvae were fixed overnight with 4% PFA at 4 °C. Embryos were washed in PBST for 5 min and dehydrated by a graded methanol series until reaching 100% methanol. […]

Cc1ccnc(-c2cc(C)ccn2)c1.Cc1ccnc(-c2cc(C)ccn2)c1.[Cl-].[Cl-].[Ru+2].c1csc(-c2ccc(-c3ccc(-c4nc5c6cccnc6c6ncccc6c5[nH]4)s3)s2)c1 [TLD1433]
TUNEL apoptosis of engrafted cells (in words) (dark, 4 dpi): no positive green signal detected | TUNEL apoptosis of engrafted cells (in words) (light 114 J.cm^−2, 4 dpi): induced CRMM1 and CRMM2 cell apoptosis
